This passage reports Ki results from BindingDB's records for doi:10.1021/jm0502182 (Institute of Cancer Research, 2005).

pKi: −log10 of the molar value.

The experiment in a line: Inhibitory activity against carboxypeptidase G2 from pseudomonas RS16.

`O=C(O)CC[C@H](NC(=O)c1c(F)c(F)c(N(CCI)CCI)c(F)c1F)C(=O)O` [(S)-2-{4-[Bis-(2-iodo-ethyl)-amino]-2,3,5,6-tetrafluoro-benzoylamino}-pentanedioic acid] had a pKi of 3.56.
For the compound `O=C(O)CC[C@H](NC(=O)c1c(F)c(F)c(N(CCCl)CCCl)c(F)c1F)C(=O)O` [(S)-2-{4-[Bis-(2-chloro-ethyl)-amino]-2,3,5,6-tetrafluoro-benzoylamino}-pentanedioic acid], the pKi is 3.90.
